Laboratory results: ChEMBL document CHEMBL4804284

Assays:
Parameters in all cases: scale not given: the % may be the effect or the level left
[1] = target: Tyrosine-protein kinase Fes/Fps (Homo sapiens) (UniProt P07332); assay: Inhibition of DNA-tagged human FES assessed as percent of control at 50000 nM by qPCR analysis relative to control
[2] = target: Phosphatidylinositol 5-phosphate 4-kinase type-2 gamma (Homo sapiens) (UniProt Q8TBX8); assay: Inhibition of DNA-tagged human PIP5K2C assessed as percent of control at 50000 nM by qPCR analysis relative to control
[3] = target: 5'-AMP-activated protein kinase catalytic subunit alpha-1 (Homo sapiens) (UniProt Q13131); assay: Inhibition of DNA-tagged human AMPK-alpha1 assessed as percent of control at 50000 nM by qPCR analysis relative to control
[4] = target: Protein-tyrosine kinase 2-beta (Homo sapiens) (UniProt Q14289); assay: Inhibition of DNA-tagged human PYK2 assessed as percent of control at 50000 nM by qPCR analysis relative to control
[5] = target: Serine/threonine-protein kinase VRK2 (Homo sapiens) (UniProt Q86Y07); assay: Inhibition of DNA-tagged human VRK2 assessed as percent of control at 50000 nM by qPCR analysis relative to control
[6] = target: Serine/threonine-protein kinase PRP4 homolog (Homo sapiens) (UniProt Q13523); assay: Inhibition of DNA-tagged human PRP4 assessed as percent of control at 50000 nM by qPCR analysis relative to control
[7] = target: Serine/threonine-protein kinase PAK 6 (Homo sapiens) (UniProt Q9NQU5); assay: Inhibition of DNA-tagged human PAK6 assessed as percent of control at 50000 nM by qPCR analysis relative to control
[8] = target: Tyrosine-protein kinase Tec (Homo sapiens) (UniProt P42680); assay: Inhibition of DNA-tagged human TEC assessed as percent of control at 50000 nM by qPCR analysis relative to control
[9] = target: Cyclin-dependent kinase 17 (Homo sapiens) (UniProt Q00537); assay: Inhibition of DNA-tagged human PCTK2 assessed as percent of control at 50000 nM by qPCR analysis relative to control
[10] = target: Interleukin-1 receptor-associated kinase 1 (Homo sapiens) (UniProt P51617); assay: Inhibition of DNA-tagged human IRAK1 assessed as percent of control at 50000 nM by qPCR analysis relative to control
[11] = target: Serine/threonine-protein kinase PLK4 (Homo sapiens) (UniProt O00444); assay: Inhibition of DNA-tagged human PLK4 assessed as percent of control at 50000 nM by qPCR analysis relative to control
[12] = target: Serine/threonine-protein kinase Chk1 (Homo sapiens) (UniProt O14757); assay: Inhibition of DNA-tagged human CHEK1 assessed as percent of control at 50000 nM by qPCR analysis relative to control
[13] = target: Tyrosine-protein kinase ABL1 (Homo sapiens) (UniProt P00519); assay: Inhibition of DNA-tagged phosphorylated human ABL1 assessed as percent of control at 50000 nM by qPCR analysis relative to control
[14] = target: MAP/microtubule affinity-regulating kinase 4 (Homo sapiens) (UniProt Q96L34); assay: Inhibition of DNA-tagged human MARK4 assessed as percent of control at 50000 nM by qPCR analysis relative to control
[15] = target: Serine/threonine-protein kinase SIK1 (Homo sapiens) (UniProt P57059); assay: Inhibition of DNA-tagged human SIK assessed as percent of control at 50000 nM by qPCR analysis relative to control
[16] = tested on: Tyrosine-protein kinase ABL1 (Homo sapiens), P00519 [E255K]; assay: Inhibition of DNA-tagged phosphorylated human ABL1 E255K mutant assessed as percent of control at 50000 nM by qPCR analysis relative to control
[17] = target: Insulin receptor-related protein (Homo sapiens) (UniProt P14616); assay: Inhibition of DNA-tagged human INSRR assessed as percent of control at 50000 nM by qPCR analysis relative to control
[18] = target: Serine/threonine-protein kinase LATS2 (Homo sapiens) (UniProt Q9NRM7); assay: Inhibition of DNA-tagged human LATS2 assessed as percent of control at 50000 nM by qPCR analysis relative to control
[19] = target: SNF-related serine/threonine-protein kinase (Homo sapiens) (UniProt Q9NRH2); assay: Inhibition of DNA-tagged human SNRK assessed as percent of control at 50000 nM by qPCR analysis relative to control
[20] = target: LIM domain kinase 1 (Homo sapiens) (UniProt P53667); assay: Inhibition of DNA-tagged human LIMK1 assessed as percent of control at 50000 nM by qPCR analysis relative to control
[21] = target: Serine/threonine-protein kinase 24 (Homo sapiens) (UniProt Q9Y6E0); assay: Inhibition of DNA-tagged human MST3 assessed as percent of control at 50000 nM by qPCR analysis relative to control
[22] = target: SRSF protein kinase 2 (Homo sapiens) (UniProt P78362); assay: Inhibition of DNA-tagged human SRPK2 assessed as percent of control at 50000 nM by qPCR analysis relative to control
[23] = target: Homeodomain-interacting protein kinase 3 (Homo sapiens) (UniProt Q9H422); assay: Inhibition of DNA-tagged human HIPK3 assessed as percent of control at 50000 nM by qPCR analysis relative to control
[24] = target: Citron Rho-interacting kinase (Homo sapiens) (UniProt O14578); assay: Inhibition of DNA-tagged human CIT assessed as percent of control at 50000 nM by qPCR analysis relative to control
[25] = target: Muscle, skeletal receptor tyrosine-protein kinase (Homo sapiens) (UniProt O15146); assay: Inhibition of DNA-tagged human MUSK assessed as percent of control at 50000 nM by qPCR analysis relative to control
[26] = target: Mast/stem cell growth factor receptor Kit (Homo sapiens) (UniProt P10721); assay: Inhibition of DNA-tagged human KIT assessed as percent of control at 50000 nM by qPCR analysis relative to control
[27] = target: Calcium/calmodulin-dependent protein kinase type II subunit alpha (Homo sapiens) (UniProt Q9UQM7); assay: Inhibition of DNA-tagged human CAMK2A assessed as percent of control at 50000 nM by qPCR analysis relative to control
[28] = target: Tyrosine-protein kinase TXK (Homo sapiens) (UniProt P42681); assay: Inhibition of DNA-tagged human TXK assessed as percent of control at 50000 nM by qPCR analysis relative to control
[29] = target: Bone morphogenetic protein receptor type-1A (Homo sapiens) (UniProt P36894); assay: Inhibition of DNA-tagged human BMPR1A assessed as percent of control at 50000 nM by qPCR analysis relative to control
[30] = target: Receptor-interacting serine/threonine-protein kinase 2 (Homo sapiens) (UniProt O43353); assay: Inhibition of DNA-tagged human RIPK2 assessed as percent of control at 50000 nM by qPCR analysis relative to control

Sequence of MAP/microtubule affinity-regulating kinase 4 (Homo sapiens) (Q96L34 whole entry): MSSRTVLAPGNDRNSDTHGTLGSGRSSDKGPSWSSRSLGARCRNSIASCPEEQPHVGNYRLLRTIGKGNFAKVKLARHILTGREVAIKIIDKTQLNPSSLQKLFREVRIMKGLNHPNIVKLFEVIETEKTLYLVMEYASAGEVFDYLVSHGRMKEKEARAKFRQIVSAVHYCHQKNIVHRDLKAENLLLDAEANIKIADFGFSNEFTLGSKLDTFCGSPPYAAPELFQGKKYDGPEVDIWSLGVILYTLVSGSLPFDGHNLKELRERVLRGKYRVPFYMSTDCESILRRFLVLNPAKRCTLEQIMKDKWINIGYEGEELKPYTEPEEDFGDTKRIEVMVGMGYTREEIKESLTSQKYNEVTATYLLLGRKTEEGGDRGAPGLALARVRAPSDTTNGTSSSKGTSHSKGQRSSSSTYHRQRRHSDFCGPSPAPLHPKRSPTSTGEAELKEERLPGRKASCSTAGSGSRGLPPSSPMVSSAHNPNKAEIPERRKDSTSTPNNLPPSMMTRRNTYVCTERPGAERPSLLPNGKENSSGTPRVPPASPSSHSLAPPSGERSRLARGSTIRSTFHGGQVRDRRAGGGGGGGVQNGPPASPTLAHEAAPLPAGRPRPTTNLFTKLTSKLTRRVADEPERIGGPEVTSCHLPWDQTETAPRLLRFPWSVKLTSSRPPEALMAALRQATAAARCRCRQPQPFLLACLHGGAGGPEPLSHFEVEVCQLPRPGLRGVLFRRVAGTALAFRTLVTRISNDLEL
Sequence of Serine/threonine-protein kinase LATS2 (Homo sapiens) (Q9NRM7 whole entry): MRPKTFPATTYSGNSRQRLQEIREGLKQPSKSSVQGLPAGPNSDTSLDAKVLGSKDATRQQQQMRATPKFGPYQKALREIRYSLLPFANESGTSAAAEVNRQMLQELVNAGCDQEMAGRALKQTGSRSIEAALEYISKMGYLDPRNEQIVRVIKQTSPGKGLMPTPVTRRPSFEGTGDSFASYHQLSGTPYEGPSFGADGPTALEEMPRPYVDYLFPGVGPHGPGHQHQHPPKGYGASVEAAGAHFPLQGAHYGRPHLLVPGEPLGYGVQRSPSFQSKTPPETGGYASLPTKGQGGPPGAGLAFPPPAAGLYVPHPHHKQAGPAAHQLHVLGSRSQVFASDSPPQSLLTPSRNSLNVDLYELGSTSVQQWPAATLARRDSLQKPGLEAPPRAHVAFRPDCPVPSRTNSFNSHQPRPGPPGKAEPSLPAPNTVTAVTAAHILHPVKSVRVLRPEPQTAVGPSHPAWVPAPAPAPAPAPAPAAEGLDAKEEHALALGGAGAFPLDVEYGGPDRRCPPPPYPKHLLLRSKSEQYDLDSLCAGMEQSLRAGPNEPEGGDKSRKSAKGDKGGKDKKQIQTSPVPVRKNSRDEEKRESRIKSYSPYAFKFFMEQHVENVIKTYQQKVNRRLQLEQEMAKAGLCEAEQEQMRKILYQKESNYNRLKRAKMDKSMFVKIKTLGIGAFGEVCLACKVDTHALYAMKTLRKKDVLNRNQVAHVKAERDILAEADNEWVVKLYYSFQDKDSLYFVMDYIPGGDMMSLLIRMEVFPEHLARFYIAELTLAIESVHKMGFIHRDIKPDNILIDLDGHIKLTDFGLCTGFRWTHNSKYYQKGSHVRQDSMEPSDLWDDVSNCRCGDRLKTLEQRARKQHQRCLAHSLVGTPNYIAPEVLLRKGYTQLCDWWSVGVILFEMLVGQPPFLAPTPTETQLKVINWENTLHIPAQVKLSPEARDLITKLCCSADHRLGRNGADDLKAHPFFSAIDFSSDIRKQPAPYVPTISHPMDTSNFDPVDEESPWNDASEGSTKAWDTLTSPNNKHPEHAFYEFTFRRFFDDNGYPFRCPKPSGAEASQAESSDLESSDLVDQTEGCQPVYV
Sequence of Insulin receptor-related protein (Homo sapiens) (P14616 27-742 limits assumed): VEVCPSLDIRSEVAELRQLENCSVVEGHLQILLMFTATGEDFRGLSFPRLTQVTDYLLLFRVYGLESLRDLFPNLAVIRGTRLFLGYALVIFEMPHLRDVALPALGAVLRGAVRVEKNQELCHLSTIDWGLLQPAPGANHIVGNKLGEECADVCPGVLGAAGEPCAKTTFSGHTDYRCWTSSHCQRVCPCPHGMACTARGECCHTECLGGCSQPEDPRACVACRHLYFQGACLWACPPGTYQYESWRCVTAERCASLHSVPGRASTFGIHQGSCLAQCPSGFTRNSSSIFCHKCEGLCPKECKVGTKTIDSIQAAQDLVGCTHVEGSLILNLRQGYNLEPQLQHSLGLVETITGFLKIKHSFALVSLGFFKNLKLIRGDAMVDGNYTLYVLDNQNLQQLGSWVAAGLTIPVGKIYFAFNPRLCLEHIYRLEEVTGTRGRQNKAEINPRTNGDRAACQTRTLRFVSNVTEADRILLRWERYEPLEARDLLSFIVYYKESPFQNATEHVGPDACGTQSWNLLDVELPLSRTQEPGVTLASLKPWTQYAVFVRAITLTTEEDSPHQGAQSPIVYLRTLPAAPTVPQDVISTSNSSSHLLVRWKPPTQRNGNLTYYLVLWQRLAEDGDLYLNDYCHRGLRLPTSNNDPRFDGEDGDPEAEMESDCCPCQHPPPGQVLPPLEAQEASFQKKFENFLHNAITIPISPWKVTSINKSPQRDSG
Sequence of Insulin receptor-related protein (Homo sapiens) (P14616 747-1297 limits assumed): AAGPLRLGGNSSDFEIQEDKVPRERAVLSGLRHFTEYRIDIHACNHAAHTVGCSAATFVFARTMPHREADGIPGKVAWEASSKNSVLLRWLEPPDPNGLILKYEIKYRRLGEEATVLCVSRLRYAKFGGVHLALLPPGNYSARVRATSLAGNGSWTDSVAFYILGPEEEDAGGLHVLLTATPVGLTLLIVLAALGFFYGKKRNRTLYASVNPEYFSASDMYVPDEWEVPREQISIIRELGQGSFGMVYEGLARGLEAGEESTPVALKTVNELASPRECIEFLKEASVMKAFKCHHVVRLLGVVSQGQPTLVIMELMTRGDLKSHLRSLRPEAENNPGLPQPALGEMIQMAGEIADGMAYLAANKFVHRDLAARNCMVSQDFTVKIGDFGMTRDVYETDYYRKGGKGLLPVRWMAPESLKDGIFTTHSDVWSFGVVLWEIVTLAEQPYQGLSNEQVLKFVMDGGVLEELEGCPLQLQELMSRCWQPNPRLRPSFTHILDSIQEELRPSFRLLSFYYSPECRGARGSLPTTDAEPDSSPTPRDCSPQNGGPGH
Sequence of LIM domain kinase 1 (Homo sapiens) (P53667 whole entry, looked up, the tested form may be a part): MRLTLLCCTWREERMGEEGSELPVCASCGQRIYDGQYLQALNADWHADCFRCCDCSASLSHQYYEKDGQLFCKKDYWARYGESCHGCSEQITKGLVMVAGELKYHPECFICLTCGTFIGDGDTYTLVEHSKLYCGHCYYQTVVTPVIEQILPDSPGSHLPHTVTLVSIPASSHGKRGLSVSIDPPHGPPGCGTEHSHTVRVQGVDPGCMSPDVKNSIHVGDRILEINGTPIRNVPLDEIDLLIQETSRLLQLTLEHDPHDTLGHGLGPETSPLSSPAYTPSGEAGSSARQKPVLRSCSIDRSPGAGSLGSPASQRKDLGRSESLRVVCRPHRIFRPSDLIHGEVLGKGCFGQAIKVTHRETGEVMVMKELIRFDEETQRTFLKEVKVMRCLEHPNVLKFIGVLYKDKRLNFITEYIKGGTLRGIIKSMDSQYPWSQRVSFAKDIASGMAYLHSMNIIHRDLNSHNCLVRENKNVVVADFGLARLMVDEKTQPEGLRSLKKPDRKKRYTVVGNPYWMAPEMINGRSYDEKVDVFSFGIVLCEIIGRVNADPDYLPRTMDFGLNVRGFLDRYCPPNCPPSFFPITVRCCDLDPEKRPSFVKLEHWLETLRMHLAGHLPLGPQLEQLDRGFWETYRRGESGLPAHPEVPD
Sequence of Tyrosine-protein kinase ABL1 (Homo sapiens), P00519 [E255K] (P00519 whole entry E255K): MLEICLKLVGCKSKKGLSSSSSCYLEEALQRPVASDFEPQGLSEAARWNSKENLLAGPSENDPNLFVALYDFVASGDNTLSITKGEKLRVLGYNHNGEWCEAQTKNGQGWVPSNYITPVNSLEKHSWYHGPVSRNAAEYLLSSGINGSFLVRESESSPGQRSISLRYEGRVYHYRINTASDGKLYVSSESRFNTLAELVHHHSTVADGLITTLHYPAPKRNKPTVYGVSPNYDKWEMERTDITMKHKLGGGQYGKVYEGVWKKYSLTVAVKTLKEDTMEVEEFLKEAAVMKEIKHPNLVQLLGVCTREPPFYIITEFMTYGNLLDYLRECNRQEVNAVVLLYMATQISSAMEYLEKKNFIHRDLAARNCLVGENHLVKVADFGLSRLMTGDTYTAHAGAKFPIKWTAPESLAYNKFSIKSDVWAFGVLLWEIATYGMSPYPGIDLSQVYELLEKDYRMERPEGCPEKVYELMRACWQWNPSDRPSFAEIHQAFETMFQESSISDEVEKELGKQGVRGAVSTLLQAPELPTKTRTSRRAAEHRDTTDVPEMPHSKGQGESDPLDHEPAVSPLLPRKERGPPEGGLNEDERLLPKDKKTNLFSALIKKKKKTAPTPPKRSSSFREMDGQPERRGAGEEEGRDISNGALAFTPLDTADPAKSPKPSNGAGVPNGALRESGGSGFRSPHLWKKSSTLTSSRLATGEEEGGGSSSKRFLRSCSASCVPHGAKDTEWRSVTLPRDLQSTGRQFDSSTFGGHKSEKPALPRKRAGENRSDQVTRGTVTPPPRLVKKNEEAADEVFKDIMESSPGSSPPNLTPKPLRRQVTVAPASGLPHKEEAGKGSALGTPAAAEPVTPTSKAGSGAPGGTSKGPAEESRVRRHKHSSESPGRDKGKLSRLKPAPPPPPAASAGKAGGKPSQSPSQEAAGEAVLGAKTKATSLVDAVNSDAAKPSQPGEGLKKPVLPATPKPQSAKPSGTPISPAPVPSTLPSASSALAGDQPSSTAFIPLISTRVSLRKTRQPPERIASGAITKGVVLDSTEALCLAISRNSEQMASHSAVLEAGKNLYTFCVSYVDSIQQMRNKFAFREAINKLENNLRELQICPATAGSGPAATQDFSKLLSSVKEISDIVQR
Sequence of Tyrosine-protein kinase ABL1 (Homo sapiens) (P00519 whole entry): as the sequence (P00519 whole entry E255K) above, with K255E counted along it

CN1C(=O)/C(=C2/C(=O)Nc3ccccc32)c2ccccc21
Activity [1]: 95%
Activity [2]: 55%
Activity [3]: 100%
Activity [4]: 100%
Activity [5]: 79%
Activity [6]: 89%
Activity [7]: 100%
Activity [8]: 100%
Activity [9]: 96%
Activity [10]: 64%
Activity [11]: 79%
Activity [12]: 100%
Activity [13]: 96%
Activity [14]: 77%
Activity [15]: 93%
Activity [16]: 100%
Activity [17]: 84%
Activity [18]: 90%
Activity [19]: 81%
Activity [20]: 84%
Activity [21]: 88%
Activity [22]: 100%
Activity [23]: 80%
Activity [24]: 78%
Activity [25]: 86%
Activity [26]: 94%
Activity [27]: 99%
Activity [28]: 100%
Activity [29]: 100%
Activity [30]: 100%
